In PMC6760105, “Construction of a novel quinoxaline as a new class of Nrf2 activator” (BMC Chemistry, 2019):

What was measured:
[1] = system: RAW 264.7 cells; experiment: PGE2 production, ELISA, LPSEc stimulated cells; format: cell-based; conditions: Mus musculus, RAW264.7, LPSEc (1 µg/mL) stimulated RAW 264.7 cells
Method: (§1) Murine macrophages, cell line: RAW 264.7 was procured from ATCC, USA. The macrophage cells were grown and cultured in Dulbecco’s Modified Eagle Medium (DMEM) supplemented with 10% Fetal Bovine serum (FBS) and 1% PenStrep and incubated in a 5% CO2 at 37 °C incubator. Cells from passages 10 to 20 were used for subsequent experiments.
(§2) Production of IL-1β, IL-6, PGE2− and TNF-α in RAW 264.7 cells were quantitatively measured using an enzyme-linked immunosorbent assay (ELISA). The cells were incubated with 0.1% DMSO or NQC for 4 h, then stimulated with LPSEc, 1 µg/mL, for 20 h. The production of pro-inflammatory cytokines (IL-1β, IL-6) and TNF-α were determined using commercial ELISA kit (RayBio) according to the manufacturer’s instructions in product insert. The absorbance was measured at 540 nm. All the experiments were performed in triplicate.

[2] = Microsomal metabolic stability, rat liver microsomes; format: in vitro ADME; conditions: NQC 1 µM
Method: (§3) A stock solution (SS) of NQC at 1 mM was prepared using 100% dimethyl sulfoxide. Working solution of 10 μM was further prepared by dilution of SS with 25% ACN and 50 mM tris–HCl buffer (pH 7.4). In a 96-well plate, NQC (effective concentration:1 µM) was incubated with phosphate buffer (pH7.4) and 0.5 mg/mL of liver microsomes (human, rat and mouse) at 37 °C in an incubation. Each NQC incubation with liver microsomes was performed in triplicates. The microsomal metabolic reaction was initiated by the addition of co-factor, NADPH (5 mM). Samples following the allotted time-point was drawn and quenched into a solution of acetonitrile containing 50 ng/mL internal standard. The sample was analysed by a developed HPLC method that has been validated for lower limit of quantification, linearity, precision, selectivity and accuracy according to FDA guidance.
(§4) Half-life of NQC was calculated using the equation: T1/2=0.693/K.
(§5) The in vitro microsomal intrinsic clearance (CLint) was calculated based on the equation below: Clint=0.693/invitrot(1/2)×mlincubation/mgmicrosome×52.5mgmicrosome/gliver×[…].

[3] = biological target: T1, Nrf2-Keap1 interaction (Homo sapiens, UniProt Q14145); experiment: Keap1:Nrf2 Inhibitor Screening Assay Kit (Nrf2 activation assay); format: binding; conditions: fluorescence λex 485 nm, λem 530 nm; 100 µM to 1 nM; read-out: IC50, inhibition of Nrf2-Keap1 interaction
T1 construct: purchased BPS Bioscience, USA
Method: The Nrf2 activation by NQC was determined using ‘Keap1:Nrf2 Inhibitor Screening Assay Kit’ (BPS Bioscience, USA) following the instructions in product insert. The NQC was dissolved in DMSO and diluted with assay buffer provided in the kit to produce the concentrations range, 100 µM to 1 nM. The fluorescence of the solutions in each well of 96-well plate was measured at λex 485 nm and λem 530 nm. The dose–response curve was constructed plotting percent reduction in Kepa1-Nrf2 binding activity versus log concentration of NQC. From dose–response curve IC50 value was calculated.

[4] = system: RAW 264.7 cells; experiment: IL-6 production, ELISA, LPSEc stimulated cells; format: cell-based; conditions: Mus musculus, RAW264.7, LPSEc (1 µg/mL) stimulated RAW 264.7 cells
Method: as §1, §2

[5] = system: RAW 264.7 cells; experiment: IL-1β production, ELISA, LPSEc stimulated cells; format: cell-based; conditions: Mus musculus, RAW264.7, LPSEc (1 µg/mL) stimulated RAW 264.7 cells
Method: as §1, §2

[6] = Microsomal metabolic stability, human liver microsomes; format: in vitro ADME; conditions: NQC 1 µM
Method: as §3, §4, §5

[7] = system: RAW 264.7 cells; experiment: TNF-α production, ELISA, LPSEc stimulated cells; format: cell-based; conditions: Mus musculus, RAW264.7, LPSEc (1 µg/mL) stimulated RAW 264.7 cells
Method: as §1, §2

[8] = system: RAW 264.7 cells; experiment: Nitric oxide (nitrite) production, Griess reagent, LPSEc stimulated cells; format: cell-based; conditions: Mus musculus, RAW264.7; LPSEc (1 µg/mL) stimulated RAW 264.7 cells; 4 h pretreatment, 20 h LPS; read-out: IC50, NO production
Method: as §1
RAW 264.7 cells were seeded in a 96-well microplate at 3 × 10^5 cells/well with complete media. The cells were allowed grow and adhere for 24 h. The cells were treated with NQC (50, 25, 12.5, 6.25 and 3.125 µM) and negative control (0.1% v/v DMSO in water) for 4 h prior to LPSEc (1 µg/mL) and allowed to incubate for 20 h at 37 °C, 5% CO2 incubator. Nitrite exist as a stable metabolite of nitric oxide, thus nitrite present in the supernatant was quantitatively measured as a chemical marker of nitric oxide (NO) production using Griess reagent (Promega, USA; 0.1% naphthylethylenediamine dihydrochloride and 1% sulfanilamide in 2.5% phosphoric acid). This assay was carried out following the manufacturer’s protocol where 100 µL of cell supernatant sample was incubated with 100 µL of Griess reagent at room temperature for 10 min and the absorbance at 540 nm was measured using Molecular Devices Spectramax M3 Multi-Mode microplate reader. […]

[9] = system: RAW 264.7 cells; experiment: MTT cell viability assay; format: cell-based, mouse; conditions: for cytotoxic effects on RAW 264.7 cells (MTT): LPSEc stimulated
Method: as §1
A calorimetric agent (3-(4,5-Dimethylthiazol-2-yl)-2,5-Diphenyltetrazolium Bromide) (MTT) was used to as an assay to determine cell viability after being exposed to NQC. RAW 264.7 cells were seeded in a 96-well microplate at 3 × 10^5 cells/well and were allowed to grow and adhere for 24 h in a 37 °C, 5% CO2 incubator. NQC was dissolved in DMSO and diluted with PBS to produce the required test concentrations (100, 50, 25, 12.5, 6.25 and 3.125 µM). The negative control is 0.1% (v/v) DMSO, which is the maximum effective concentration of DMSO in a well. The cells were treated with either NQC or 0.1% (v/v) DMSO for 4 h followed by 1 µg/mL LPSEc and incubated further for 20 h. MTT solution was added at 100 µL per well under dark condition and the cells were incubated further for 4 h. Upon completion of incubation, the contents in all wells were aspirated and DMSO was added at 100 µL per well. The absorbance was measured at 570 nm using Molecular Devices Spectramax M3 Multi-Mode microplate reader; Sunnyvale, CA, USA. The cells without any treatment was used as a control. MTT assay was performed in triplicate. The percent cell viability is calculated using the following equation: PercentCellViabilty=AbsorbanceofVehicleorTD-1treatedgroupwell/AbsorbanceofControlwell×100.

[10] = Microsomal metabolic stability, mouse liver microsomes; format: in vitro ADME; conditions: NQC 1 µM
Method: as §3, §4, §5

T1 sequence (Q14145 whole entry): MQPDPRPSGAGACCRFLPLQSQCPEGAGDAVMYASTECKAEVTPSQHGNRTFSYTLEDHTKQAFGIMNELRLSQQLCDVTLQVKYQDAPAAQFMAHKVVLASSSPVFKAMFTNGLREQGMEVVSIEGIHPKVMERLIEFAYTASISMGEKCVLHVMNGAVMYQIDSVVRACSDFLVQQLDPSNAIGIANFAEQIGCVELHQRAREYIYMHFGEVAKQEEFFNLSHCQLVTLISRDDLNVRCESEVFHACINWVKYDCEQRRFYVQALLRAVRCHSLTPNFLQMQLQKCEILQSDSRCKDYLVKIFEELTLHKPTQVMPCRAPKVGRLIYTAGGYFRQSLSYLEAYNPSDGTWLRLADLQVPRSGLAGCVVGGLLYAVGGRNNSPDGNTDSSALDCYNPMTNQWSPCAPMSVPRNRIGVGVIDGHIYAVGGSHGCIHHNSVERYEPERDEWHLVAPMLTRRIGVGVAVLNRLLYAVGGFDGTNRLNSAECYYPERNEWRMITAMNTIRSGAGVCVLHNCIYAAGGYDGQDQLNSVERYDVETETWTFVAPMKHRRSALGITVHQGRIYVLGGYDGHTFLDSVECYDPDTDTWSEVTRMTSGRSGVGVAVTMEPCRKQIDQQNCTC

IC50 [1]: 15.2 ± 0.91 µM | T1/2 ([2]; rat liver microsomes 0.5 mg/mL, NADPH, 37 °C): 52.23 ± 0.81 min | Rate of metabolism ([2]; rat liver microsomes): 0.013 min⁻¹ | microsomal intrinsic clearance (CLint) ([2]; rat liver microsomes): 1.39 ± 0.87 mL/min/g liver | mCint (microsomal intrinsic clearance) ([2]; rat liver microsomes, Table 1): 1.39 ± 0.87 mL/min/g liver | half-life at 1 µM ([2]; rat, liver microsomes, pH 7.4, rat liver microsomes 0.5 mg/mL, NADPH, 37 °C): 52.3 ± 0.81 min | IC50 [3]: 4.21 ± 0.89 µM | IC50 [4]: 10.1 ± 0.58 µM | IC50 [5]: 13.3 ± 2.37 µM | Rate of metabolism ([6]; human liver microsomes): 0.011 min⁻¹ | microsomal intrinsic clearance (CLint) ([6]; human liver microsomes): 1.14 ± 0.31 mL/min/g liver | mCint (microsomal intrinsic clearance) ([6]; human liver microsomes, Table 1): 1.14 ± 0.31 mL/min/g liver | half-life at 1 µM ([6]; pH 7.4, human liver microsomes 0.5 mg/mL, NADPH, 37 °C): 63.3 ± 1.73 min | IC50 [7]: 14.4 ± 1.83 µM | IC50 [8]: 26.1 ± 1.17 µM | Rate of metabolism ([10]; mouse liver microsomes): 0.028 min⁻¹ | microsomal intrinsic clearance (CLint) ([10]; mouse liver microsomes): 2.96 ± 0.34 mL/min/g liver | mCint (microsomal intrinsic clearance) ([10]; mouse liver microsomes, Table 1): 2.96 ± 0.34 mL/min/g liver | half-life at 1 µM ([10]; pH 7.4, mouse liver microsomes 0.5 mg/mL, NADPH, 37 °C): 24.6 ± 1.13 min
SMILES: O=C(NNC(=O)c1cnc2ccccc2n1)c1cccnc1 [NQC, N′-(Pyridine-3-carbonyl)quinoxaline-2-carbohydrazide]
cytotoxic effects on RAW 264.7 cells (MTT) ([9]; 100 µM, P < 0.05): significant toxicity | cytotoxic effects on RAW 264.7 cells (MTT) ([9]; 3.125–50 µM, P > 0.05): do not show cytotoxic effects | toxicity on RAW 264.7 cells ([9]; dose of 50 µM): non-toxic
